Assay results published in patent US20190216886A1, “Topical Compositions And Methods For Treating Wounds” (priority 2014, published 2019).

What was measured:
tinea pedis infection = assay: treatment of a patient with chronic tinea pedis; format: in vivo, human; settings: person, oral, after a month's treatment
Protocol: Twenty patients with a variety of chronic wound conditions that included diabetic foot ulcers, decubitus pressure ulcers, surgical wounds, toe fungus were treated for eight weeks by wound care physicians with a compounded topical pharmaceutical composition made from compendial ingredients.
Specifically, the test pharmaceutical composition for these studies was prepared by compounding: 25 parts 1% silver sulfadiazine cream: 25 parts 20% zinc oxide ointment; 15 parts triple antibiotic ointment; 25 parts 2% lidocaine viscous; 5 parts Vitamin E Oil (as 200 IU/gm final); and 5 parts Coenzyme Q10 (as 15 mg/gm final).
A case of tinea pedis was also reported in one of the patients. A person who had been suffering from chronic tinea pedis infection (athlete's foot) for over 10 months had tried numerous over-the-counter remedies with no success. They were prescribed the oral antibiotic terbinafine. […] The terbinafine was discontinued and the patient was placed on the test pharmaceutical formulation of the invention on Apr. 14, 2014. They returned for a follow-up with their physician about one week later on Apr. 22, 2014. […] The patient returned for a second follow up on Apr. 29, 2014 (FIG. 5B). The physician's report about 2 weeks after beginning treatment states: “Patient reports foot no longer itchy. Skin healing. […] Foot dry, healthy new tissue visualized”. […]

C. albicans = assay: in vitro zone inhibition (disk diffusion) study; format: cell-based, Candida albicans; settings: for Mean inhibition diameter: C. albicans (n = 6), 6 mm paper disks on Mueller Hinton Agar; for antimicrobial activity, in words: C. albicans (fungi), zone inhibition
Protocol: (§1) In vitro culture and sensitivity studies were performed on common microbes seen in acute and stubborn chronic wound cases. The particular microbes tested included streptococcus pyogenes, staphylococcus aureus, methicillin resistant staphylococcus aureus (MRSA) and, a fungus, candida albicans. Ten different strains of MRSA bacteria obtained from infected hospital patients were tested.
(§2) The different microbes were inoculated on Mueller Hinton Agar media in culture plates. […] However, genetically mutated resistant strains of staphylococcus have evolved and are now the cause of numerous infections because of their resistant nature to most antibiotics.

S. pyogenes = assay: in vitro zone inhibition (disk diffusion) study; format: cell-based, Streptococcus pyogenes; settings: for Mean inhibition diameter: S. pyogenes (n = 6), 6 mm paper disks on Mueller Hinton Agar; for antimicrobial activity, in words: S. pyogenes, zone inhibition
Protocol: as §1, §2

MRSA = assay: in vitro zone inhibition (disk diffusion) study; format: cell-based, methicillin resistant staphylococcus aureus; settings: for Mean inhibition diameter: MRSA (10 strains, n = 30), 6 mm paper disks on Mueller Hinton Agar; for zone of inhibition, visual result: MRSA strain number 11, FIG. 7; for antimicrobial activity, in words: MRSA, zone inhibition
Protocol: as §1, §2

S. aureus = assay: in vitro zone inhibition (disk diffusion) study; format: cell-based, Staphylococcus aureus; settings: for Mean inhibition diameter: S. aureus (n = 6), 6 mm paper disks on Mueller Hinton Agar; for antimicrobial activity, in words: non-resistant S. aureus, zone inhibition
Protocol: as §1, §2

| SMILES | tinea pedis infection outcome (tinea pedis infection) | Mean inhibition diameter (C. albicans) | Mean inhibition diameter (S. pyogenes) | antimicrobial activity, in words (S. pyogenes) | Mean inhibition diameter (MRSA) | zone of inhibition, visual result (MRSA) | Mean inhibition diameter (S. aureus) | antimicrobial activity, in words (S. aureus) | antimicrobial activity, in words (C. albicans) | antimicrobial activity, in words (MRSA) |
| --- | --- | --- | --- | --- | --- | --- | --- | --- | --- | --- |
| CN(C/C=C/C#CC(C)(C)C)Cc1cccc2ccccc12 [terbinafine] | no sign of reduction in the infection | – | – | – | – | – | – | – | – | – |
| Cc1onc(-c2ccccc2)c1C(=O)N[C@@H]1C(=O)N2[C@@H]1SC(C)(C)[C@@H]2C(=O)O [Oxacillin, oxacillin] | – | 0.0 mm | 30.2 mm | showed antimicrobial activity | 0.0 mm | lack of any zone inhibition | 20.3 mm | showed antimicrobial activity | – | – |
| COc1cccc(OC)c1C(=O)N[C@@H]1C(=O)N2[C@@H]1SC(C)(C)[C@@H]2C(=O)O [methicillin] | – | – | – | – | – | – | – | – | no activity | no activity |
| CN[C@H](CC(C)C)C(=O)N[C@H]1C(=O)N[C@@H](CC(N)=O)C(=O)N[C@H]2C(=O)N[C@H]3C(=O)N[C@H](C(=O)N[C@H](C(=O)O)c4cc(O)cc(O)c4-c4cc3ccc4O)[C@H](O)c3ccc(c(Cl)c3)Oc3cc2cc(c3O[C@@H]2O[C@H](CO)[C@@H](O)[C@H](O)[C@H]2O[C@H]2C[C@](C)(N)[C@H](O)[C@H](C)O2)Oc2ccc(cc2Cl)[C@H]1O [Vancomycin, vancomycin] | – | 0.0 mm | 22.2 mm | potent activity | 18.9 mm | clear circular area of inhibition zone | 17.3 mm | potent activity | not effective | potent activity |
